Reference: patent publication US10139394B2, “Method for controlling cancer metastasis or cancer cell migration by modulating the cellular level of lysyl tRNA synthetase” (Medicinal Bioconvergence Research Center, priority 2008, dated 2018)

Tested on: A549 cells
Experiment: Cell migration assay in Transwell chamber
Assay type: cell-based
Conditions: laminin 10 μg/ml in lower well, 6 hr, in average, FIG. 24 and 18
Procedure: In FIG. 18, A549 cells were transfected with the indicated plasmids, incubated in the absence and presence of laminin and their effect on cell migration was determined by measuring the migrated cells in transwell chamber as described. The numbers of the cells passed through the membrane were counted and shown in each panel. The experiments were performed three times. In FIG. 19, the cells treated as above were used to determine MMP-2 activity and level by zymography and Western blotting, respectively. In FIG. 20, Breast carcinoma 4T-1 cells were transfected with the indicated siRNA and subcutaneously injected to the back of Balb/C mice. After 21 days, mouse lungs were isolated and tumor nodules over 1 mm in diameter were counted. In FIG. 21, two different 4T-1 cells stably expressing exogenously introduced KRS (KRS-1 and -2) were also inoculated as above and the tumor nodules were counted 30 days after injection. […]
FIGS. 24 to 27 show effect of intracellular and extracellular KRS on cell migration, protein synthesis and cell cycle. In FIG. 24, Migration of A549 cells incubated in the absence of laminin was determined was determined by measuring the migrated cells in Transwell chamber. […] After 6 hr of incubation, the migrant were counted. […] In FIG. 27, A549 cells transfected as indicated were fixed and stained with propidium iodide, and their cell cycle was determined by flow cytometry. […]

## laminin: laminin (Engelbreth-Holm-Swarm murine sarcoma) from Sigma
  Migration of the control cells, enhancement: about 6 fold
